Structures can show the parent of a compound that is named as a salt.
These compounds were tested against interaction between p53 and MDM2 proteins (recombinant GST-tagged MDM2) (Homo sapiens, UniProt Q00987) (assay: HTRF assay of inhibition of the p53-MDM2 interaction (GST-MDM2 / biotinylated p53 peptide)). Conditions: HTRF, 0.02% BSA, 37° C. 1 h.
Format: binding
Experimental: The ability of the compounds to inhibit the interaction between p53 and MDM2 proteins was measured by an HTRF (homogeneous time-resolved fluorescence) assay in which recombinant GST-tagged MDM2 binds to a peptide that resembles the MDM2-interacting region of p53 (Lane et al.). Binding of GST-MDM2 protein and p53-peptide (biotinylated on its N-terminal end) is registered by the FRET (fluorescence resonance energy transfer) between Europium (Eu)-labeled anti-GST antibody and streptavidin-conjugated Allophycocyanin (APC).
Test is performed in black flat-bottom 384-well plates (Costar) in a total volume of 40 uL containing: 90 nM biotinylate peptide, 160 ng/ml GST-MDM2, 20 nM streptavidin-APC (PerkinElmerWallac), 2 nM Eu-labeled anti-GST-antibody (PerkinElmerWallac), 0.02% bovine serum albumin (BSA), 1 mM dithiothreitol (DTT) and 20 mM Tris-borate saline (TBS) buffer as follows: Add 10 uL of GST-MDM2 (640 ng/ml working solution) in reaction buffer to each well. […] Incubate at 37° C. for 1 h.
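Note: FRET read-out from Eu-labelled anti-GST antibody to streptavidin-APC, with 90 nM N-terminally biotinylated p53 peptide and 160 ng/ml GST-MDM2 in Tris-borate saline containing 1 mM DTT, 384-well format.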

Sequence of interaction between p53 and MDM2 proteins (recombinant GST-tagged MDM2) (Q00987 whole entry): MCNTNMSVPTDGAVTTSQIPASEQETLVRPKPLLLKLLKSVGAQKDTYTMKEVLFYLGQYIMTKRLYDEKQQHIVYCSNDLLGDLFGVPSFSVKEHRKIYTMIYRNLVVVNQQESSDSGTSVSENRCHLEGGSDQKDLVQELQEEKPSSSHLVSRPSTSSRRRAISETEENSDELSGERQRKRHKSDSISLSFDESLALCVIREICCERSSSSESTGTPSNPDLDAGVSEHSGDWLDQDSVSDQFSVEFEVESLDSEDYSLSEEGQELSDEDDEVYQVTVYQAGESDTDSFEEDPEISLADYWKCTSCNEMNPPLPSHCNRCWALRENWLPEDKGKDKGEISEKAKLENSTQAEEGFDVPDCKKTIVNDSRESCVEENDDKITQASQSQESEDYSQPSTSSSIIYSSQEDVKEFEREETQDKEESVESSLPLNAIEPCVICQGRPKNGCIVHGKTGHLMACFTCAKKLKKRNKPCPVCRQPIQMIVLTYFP

SMILES	IC50 [nM]
COCCOCCOCCOCCOC(=O)c1ccc(NC(=O)[C@@H]2N[C@@H](CC(C)(C)C)[C@](C#N)(c3ccc(Cl)cc3F)[C@H]2c2cccc(Cl)c2F)c(OC)c1 [Example 49, 4-{[(2R,3S,4R,5S)-4-(4-Chloro-2-fluoro-phenyl)-3-(3-chloro-2-fluoro-phenyl)-4-cyano-5-(2,2-dimethyl-propyl)-pyrrolidine-2-carbonyl]-amino}-3-methoxy-benzoic acid 2-{2-[2-(2-methoxy-ethoxy)-ethoxy]-ethoxy}-ethyl ester, hydrochloride]	13.9
COc1cc(C(=O)OCCOCCOCCOCCOCCO)ccc1NC(=O)[C@@H]1N[C@@H](CC(C)(C)C)[C@](C#N)(c2ccc(Cl)cc2F)[C@H]1c1cccc(Cl)c1F [Example 50, 4-{[(2R,3S,4R,5S)-4-(4-Chloro-2-fluoro-phenyl)-3-(3-chloro-2-fluoro-phenyl)-4-cyano-5-(2,2-dimethyl-propyl)-pyrrolidine-2-carbonyl]-amino}-3-methoxy-benzoic acid 2-(2-{2-[2-(2-hydroxy-ethoxy)-ethoxy]-ethoxy}-ethoxy)-ethyl ester, hydrochloride]	9.13
COCCOCCOCCOCCOCCOC(=O)c1ccc(NC(=O)[C@@H]2N[C@@H](CC(C)(C)C)[C@](C#N)(c3ccc(Cl)cc3F)[C@H]2c2cccc(Cl)c2F)c(OC)c1 [Example 51, 4-{[(2R,3S,4R,5S)-4-(4-Chloro-2-fluoro-phenyl)-3-(3-chloro-2-fluoro-phenyl)-4-cyano-5-(2,2-dimethyl-propyl)-pyrrolidine-2-carbonyl]-amino}-3-methoxy-benzoic acid 2-(2-{2-[2-(2-methoxy-ethoxy)-ethoxy]-ethoxy}-ethoxy)-ethyl ester, hydrochloride]	10
COc1cc(C(=O)OCCOCCOCCOCCOCCOCCO)ccc1NC(=O)[C@@H]1N[C@@H](CC(C)(C)C)[C@](C#N)(c2ccc(Cl)cc2F)[C@H]1c1cccc(Cl)c1F [Example 52, 4-{[(2R,3S,4R,5S)-4-(4-Chloro-2-fluoro-phenyl)-3-(3-chloro-2-fluoro-phenyl)-4-cyano-5-(2,2-dimethyl-propyl)-pyrrolidine-2-carbonyl]-amino}-3-methoxy-benzoic acid 2-[2-(2-{2-[2-(2-hydroxy-ethoxy)-ethoxy]-ethoxy}-ethoxy)-ethoxy]-ethyl ester, hydrochloride]	9.95

The remaining lines, values ahead:

IC50 [nM]	SMILES
8.34	COc1cc(C(=O)OCCOCCOCCO)ccc1NC(=O)[C@@H]1N[C@@H](CC(C)(C)C)[C@](C#N)(c2ccc(Cl)cc2F)[C@H]1c1cccc(Cl)c1F [Example 47, 4-{[(2R,3S,4R,5S)-4-(4-Chloro-2-fluoro-phenyl)-3-(3-chloro-2-fluoro-phenyl)-4-cyano-5-(2,2-dimethyl-propyl)-pyrrolidine-2-carbonyl]-amino}-3-methoxy-benzoic acid 2-[2-(2-hydroxy-ethoxy)-ethoxy]-ethyl ester, hydrochloride]
13.5	COCCOCCOCCOC(=O)c1ccc(NC(=O)[C@@H]2N[C@@H](CC(C)(C)C)[C@](C#N)(c3ccc(Cl)cc3F)[C@H]2c2cccc(Cl)c2F)c(OC)c1 [Example 48, 4-{[(2R,3S,4R,5S)-4-(4-Chloro-2-fluoro-phenyl)-3-(3-chloro-2-fluoro-phenyl)-4-cyano-5-(2,2-dimethyl-propyl)-pyrrolidine-2-carbonyl]-amino}-3-methoxy-benzoic acid 2-[2-(2-methoxy-ethoxy)-ethoxy]-ethyl ester, hydrochloride]
12.7	COC(=O)CC[C@@H](NC(=O)c1ccc(NC(=O)[C@@H]2N[C@@H](CC(C)(C)C)[C@](C#N)(c3ccc(Cl)cc3F)[C@H]2c2cccc(Cl)c2F)c(OC)c1)C(=O)OC [Example 53, (R)-2-(4-{[(2R,3S,4R,5S)-4-(4-Chloro-2-fluoro-phenyl)-3-(3-chloro-2-fluoro-phenyl)-4-cyano-5-(2,2-dimethyl-propyl)-pyrrolidine-2-carbonyl]-amino}-3-methoxy-benzoylamino)-pentanedioic acid dimethyl ester, hydrochloride]
